This is an account of results in US12552854B2, “Peptides that block presentation of antigenic islet peptides by HLA-DQ8 and methods for treating type-1 diabetes” (Icahn School of Medicine at Mount Sinai, priority 2019, dated 2026).

The test system of data set [1] is PBMCs isolated from DQ8 positive T1D patients. Kind of data set: Cytokine production in PBMCs from DQ8 positive recent-onset T1D patients. It is filed as cell-based, human. The note with it: stimulated with InsB:9-23 for 48 h; all peptides at 50 μg/ml. From the text: Subjects with a diagnosis of T1D within the previous 2 years were recruited from the Pediatric Endocrine clinic at Children Hospital at Montefiore and from the adult Endocrine clinics at Montefiore and Mount Sinai Hospitals (New York). Peripheral blood mononuclear cells (PBMCs) were isolated from heparinized blood using Ficoll-Paque (GE Healthcare); freshly isolated PBMCs were used for T-cell activation studies and for genotyping. DNA purified from the blood of the patients was typed for HLA-DQ as previously described (32). PBMCs isolated from DQ8 positive patients were seeded in 96 well plates with 200 μl medium (RPMI, 10% FBS). […] The stimulated PBMCs were assessed for cytokine production and T-cell proliferation as described above for mouse splenocytes. DQ8 typed patients with long standing T1D (>10 years) were used as negative controls in the experiments (no T-cell responses to islet peptides).

A further data set is described as follows: FIG. 23A. As for the experimental part: Table printed on a drawing sheet, FIG. 23A
Data from a dose of 10 mg/kg and a single discrete subcutaneous dose of 10 mg/kg are shown. FIG. 23B is a graph showing mean RI-CT whole blood concentrations in male CD-1 mice following a single IV bolus dose of 10 mg/kg and a single SC dose of 10 mg/kg. […] This is a long half-life that will make it feasible to use RI-CT in a clinical setting with a once daily dose.
First reader's note: SC arm; the last four rows (n, Mean, SD, CV%) are summary statistics over the animals, and the meaning of ** is not printed on the sheet.

The nature of data set [2]: Metabolic stability in mouse hepatocytes. It is filed as in vitro ADME. The note with it: 1 μM. As for the experimental part:
Cryopreserved mouse hepatocytes were thawed at 37° C. in water bath until the ice was almost melted (˜90 seconds). The suspensions from the each were immediately transferred to 50 mL centrifuge tubes containing pre-warmed thawing media (VitroGRO HT Medium, Thawing) at 37° C. The cell suspensions were centrifuged at 50 g for 5 minutes at 4° C. (SYS679). Supernatants were discarded and the pellets were re-suspended in pre-warmed 3 mL incubation media (from in vitroGRO HT Medium, Incubation) at 37° C. The percentages of viable cells in the suspension were determined by using the Trypan Blue stain method (20 μL of tryptan blue and 20 μL of cell suspension) DF=2. Cryo mouse hepatocyte (Bioreclamation, lot #CHV) viability was 72.62% (viable/dead=305/115), and the total cells were 4.57 million. 1.57 mL of incubation media was added to cell concentration to get 1 million cells/mL. 10 μl of 100 μM test compounds stock in ACN:H2O (v:v, 1:1) was added to 990 μl of hepatocyte suspension/incubation media in a 24-well plate. 10 μl of 20 μM Midazolam was added to 990 μl of hepatocyte suspension as a positive control in a 24-well plate. The cells were incubated in a 37° C. incubator (SYS431) for 4 hours. 50 μl of aliquots (n=2) were added to 800 ul of MeOH:water (v:v, 5:95) at 0, 15, 30, 60, 120, 180 and 240 minutes. For all samples, 20 μL of internal standard (200 ng/mL tolbutamide) was added to the solution in water. The samples were vortexed vigorously for 5 minutes and then loaded onto a pre-conditioned Oasis HLB 96-well SPE plate (10 mg, […]). The Oasis HLB 96-well SPE plate was conditioned with 1 mL of methanol and then rinsed with 1 mL of water before the samples were loaded. Once loaded onto the Oasis HLB 96-well SPE plate, residual solution was removed by vacuum. The samples were eluted into a clean 96-well plate with 800 μL of 0.1% formic acid in 70% acetonitrile. The samples were evaporated to dryness under nitrogen at ambient temperature using a TurboVap 96 Concentration Workstation (Caliper Life Sciences). […]

Data set [3] deals with T1, HLA-DQ8 expressed on BSM cells (Homo sapiens, UniProt P01909+P01920, F237L).
T1 construct: BSM cells that express HLA-DQ8 on their surface; host or cells: BSM cells (B-cell line homozygous for HLA-DQ8)
Kind of data set: Flow cytometric analysis of InsB:9-23 peptide binding to BSM cells. The note with it: 10 μM peptide; flow cytometry. It is filed as cell-based.
Description: N-terminal biotinylated peptide InsB:9-23 (or gliadin) were used to test for binding to BSM cells that express HLA-DQ8 on their surface. APC-streptavidin (BD Biosciences, Franklin Lakes, NJ) were used to detect the biotinylated peptides. […] After 24 hours incubation, cells were stained with PE-mouse anti-human HLA-DQ8 (BD Biosciences) and APC-streptavidin to detect the percent binding of the peptide to BSM cells with or without D-peptides. Percent binding was analyzed by flow cytometry.

In data set [4] the target is T2, recombinant HLA-DQ8 protein (Homo sapiens, UniProt P01909+P01920).
T2 construct: contained the extracellular portion of the DQA1*0301 α chain fused to the coiled-coil region of the basic leucine zipper domain of Fos; contained the extracellular portion of the DQB1*0302 β chain fused to the coiled-coil region of the basic leucine zipper domain of JunB; Fos leucine zipper (coiled-coil region) (C); TEV protease site (internal); His6; JunB leucine zipper (coiled-coil region) (C); FLAG; host or cells: baculovirus system
Kind of data set: DELFIA immunoassay: inhibition of biotinylated InsB:9-23 binding to recombinant HLA-DQ8. The text has this:
HLA-DQ8 protein was produced using the baculovirus system. Two constructs were designed for both the α and the β chains of HLA-DQ8. The β chain construct contained the extracellular portion of the DQB1*0302 β chain fused to the coiled-coil region of the basic leucine zipper domain of JunB, and the α chain construct contained the extracellular portion of the DQA1*0301 α chain fused to the coiled-coil region of the basic leucine zipper domain of Fos. […] A tobacco etch virus protease cutting site was introduced in each chain to allow removal of the dimerization motif. The JunB and Fos dimerization motifs were added in order to allow the α and β chains to dimerize and form the final HLA-DQ8 protein (FIG. 12A). These constructs were used to produce the HLA-DQ8 protein in a baculovirus system using the Life Technologies Baculovirus protein production custom services (Carlsbad, CA).
D-peptides were produced by Fisher Scientific (Hanover Park, IL) in dry form and dissolved in PBS. All D-peptides were screened at a concentration of 10 μM for their ability to bind to the HLA-DQ8 pocket and block it from binding the InsB:9-23 peptide using a unique immunoassay (23). […] After washing 4 times, DELFIA Europium-labeled streptavidin (PerkinElmer) diluted in DELFIA assay buffer (PerkinElmer) was added for 30 minutes and shaken at slow speed at room temperature. Since the InsB:9-23 peptide was biotinylated the complex HLA-DQ8-InsB:9-23 peptide could be detected using the Europium-labeled streptavidin. After washing for 6 times, DELFIA Enhancement Solution was added for 1 hour or until the optimal signal was reached. Time-resolved fluorescence was measured using the BMG reader (BMG Labtech, Cary, NC). The experiment was performed in triplicate. As a negative control biotinylated InsB:9-23 peptide that was not pre-incubated with HLA-DQ8 was added to the nickel coated plates.
Immunoassay was performed as described above.

Entries after “also recorded” stand apart in the source; their conditions may differ.

T1 sequence (P01920 33-261 A45G/Y58L/E77G/D89A/H199R/T217I, other chains not shown): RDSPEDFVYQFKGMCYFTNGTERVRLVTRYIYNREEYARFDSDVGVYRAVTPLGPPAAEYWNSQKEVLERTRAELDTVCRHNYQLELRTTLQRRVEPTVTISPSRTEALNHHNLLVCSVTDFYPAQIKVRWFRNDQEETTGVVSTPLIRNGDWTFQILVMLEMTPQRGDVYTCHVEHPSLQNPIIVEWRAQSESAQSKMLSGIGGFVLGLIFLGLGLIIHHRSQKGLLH

Regarding `CC(C)C[C@@H](NC(=O)[C@@H](Cc1ccc(O)cc1)NC(=O)[C@@H](CC(C)C)NC(=O)[C@H](NC(=O)[C@@H](CS)NC(=O)CNC(=O)[C@@H](CCC(=O)O)NC(=O)[C@@H](CCCNC(=N)N)NC(=O)CNC(=O)CN)C(C)C)C(=O)N[C@H](C)C(=O)N[C@H](CCC(=O)O)C(=O)N[C@@H](C(=O)NCC(=O)NCC(=O)O)C(C)C` [RI-CT], in data set [1], the “IFN-γ production, PBMCs of DQ8 positive T1D patients” value was “significantly suppressed; also recorded: significantly decreased” and the “IL-2 production, PBMCs of DQ8 positive T1D patients” value is given as “significantly suppressed; also recorded: significantly decreased”. For the same compound, in the data set “FIG. 23A”, the “AUClast” value amounted to 3830 ng·h/mL and the “MRTinf” value was 4.50 h. The “consumption of the peptide after incubation with murine hepatocytes” value in data set [2] (4 hours) is reported as “little/no consumption”. Besides, the “metabolic stability (comparison)” value in data set [2] (mouse hepatocytes) is “higher metabolic stability compared to RI-EXT”. Moreover, the “inhibition of the binding of InsB:9-23 to DQ8 expressed on BSM cells (in words)” value in data set [3] is on record as “inhibits the binding”. For the same compound, the “inhibition of InsB:9-23 binding to HLA-DQ8 (in words)” value in data set [4] (D-peptides screened at 10 μM, recombinant HLA-DQ8) is reported as “significant inhibition”. For the same compound, in data set [4] (serially diluted to 0.5 μM, FIG. 3D), the “dose dependence of the inhibition of InsB:9-23 binding to HLADQ8” value is reported as “dose-dependent”.
